We go through three substances from publication PMC8729174 (RSC Chemical Biology, 2021).

The test system of assay [1] is Ar42J cells. Kind of assay: Cell death kinetics. Format: cell-based, rat. The following applies: MTS, n = 3, 6 at 60 nM, α-amanitin 1 at 10 μM.
The test system of assay [2] is sstr2-negative CHO cell line. The following applies: read-out: IC50 on CHO cells; cited from earlier work.
The target in assay [3] is sstr2. The following applies: read-out: Kd for sstr2; cited from earlier work.

As to α-amanitin [compound 1], the “cell viability after 24 hours of incubation (in words)” value in assay [1] (24 h) is “remained fully viable”. In addition, the “cell viability after 48 hours of incubation (in words)” value in assay [1] (48 h) was “loss of cell viability was only observed after 48 hours”. The IC50 in assay [2] is 300 to 700 nM.
As for “N-propargyl-dideoxy-amanitin [compound 4]”, the IC50 in assay [2] was 1000 to 2000 nM.
Regarding octreotate [compound 2], in assay [3], the dissociation constant (Kd) is around 0.4 nM.

In general, IC50 refers to the point on the concentration scale where inhibition reaches its midpoint. Usually Kd stands for the constant that tells how readily two partners part at equilibrium.
